The METLIN SMRT retention time set (Domingo-Almenara et al. 2019)

Test: gradient 5% acetonitrile 3 min, to 50% in 2 min, to 85% in 15 min, held 3 min, 100 µL/min
Details: column: Zorbax Extend-C18 2.1 x 50 mm; eluents: water / acetonitrile, 0.1% formic acid
Outline: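 Pure standards were analyzed in mixtures of ~100 molecules using HPLC coupled to a quadrupole time-of-flight mass spectrometer, in both positive and negative ionization mode. Separation used a Zorbax Extend-C18 column (2.1 × 50 mm, 1.8 μm) at 100 μL/min, with water and acetonitrile each containing 0.1% formic acid. Dead and dwell volumes were 40 μL and 900 μL, and data were collected over 3 months. Retention time was read from computationally picked adduct peaks, each inspected manually.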

SMILES | RP-LC retention time [s]
Clc1ccc2ncnc(NCc3ccc4c(c3)OCO4)c2c1 | 694
COc1ccc(CSc2ncn[nH]2)cc1 | 630
OC1CCC12CCN(Cc1cn[nH]c1-c1ccccc1)CC2 (stereo not given) | 568
CCCCNC(=O)Cn1c(=O)c2cnc(-c3ccc(Cl)cc3)nc2n(C)c1=O | 982
COc1ccc(C(=O)c2cn(CC(=O)c3ccc(Cl)cc3)c3nc(C)ccc3c2=O)cc1 | 1010
COc1ccc(N2CCN(c3cc(SCC(=O)NC4CCCCC4)ncn3)CC2)cc1 | 875
CCOc1ccc(C(=O)N2CCCC2c2nc(-c3ccc(OC)c(OC)c3)no2)cc1 (stereo not given) | 927
COc1ccc(S(=O)(=O)CCc2noc(C(=O)NCCN3CCC(C)CC3)n2)cc1 | 646
CCCc1ccc(S(=O)(=O)N2CCC3(CC2)NCCN=C3NCc2cccc(OC)c2)cc1 | 834
Cc1ccc2c(c1)C(=O)NC1(CCN(C(=O)Cc3ccccc3Cl)CC1)N2C | 841
CCn1c(=O)n(CC)c2cc(NC3=NS(=O)(=O)c4ccccc43)ccc21 | 702
CCc1noc(-c2ccc(SCC(=O)N3CCC(C)CC3)nc2)n1 | 975
Cc1ccc(C)c(NC(=O)Cn2nc3nc(N4CCCC4)ccn3c2=O)c1 | 687
Fc1ccc(-c2ccc(CNc3ncn[nH]3)o2)cc1Cl | 692
COc1ccc(NC(=O)CSc2nnc3c4cc(-c5ccc(C)c(C)c5)nn4ccn23)cc1Cl | 997
O=C(Nc1ccccc1-c1nc2ccccc2[nH]1)c1ccccc1Cl | 871
O=C(NCCc1c[nH]c2ccccc12)c1nn(-c2ccc(Cl)cc2)nc1CO | 1020
Cc1nc(N2CCN(CCO)CC2)nc2c1C(=O)CC(C)(C)C2 | 604
CCc1ccccc1NC(=O)Cn1ccc2sccc2c1=O | 742
CCOCCn1c(=O)c2c(nc3n2CCN3c2cc(Cl)ccc2OC)n(C)c1=O | 774
Cc1nc([C@@H]2CN(S(=O)(=O)C(C)C)C[C@H]2C(N)=O)n[nH]1 | 566
Cc1cccc(NC(=O)C2CCCN2S(=O)(=O)c2cc3c(cc2C)NC(=O)CO3)c1 (stereo not given) | 763
Cc1cc(N2CCOCC2)nc(N2CCN(S(=O)(=O)c3cc(C(C)C)ccc3C)CC2)n1 | 803

SMILES | RP-LC retention time [s]
CCn1c(=O)c2cc(C(=O)N3CCC(Cc4ccccc4)CC3)nn2c2ccccc21 | 1150
CCN(CC)S(=O)(=O)c1c[nH]c(=O)[nH]c1=O | 563
CCc1csc(-c2ccc(N3CCN(C(=O)c4ccc(OC)c(F)c4)CC3)nc2)n1 | 936
CCOC(=O)c1cc2c([nH]c1=O)CC(c1ccc(C)cc1)CC2=O (stereo not given) | 780
O=C(NCCCO)C(=O)Nc1ccc(Cl)c(C(F)(F)F)c1 | 795
CCc1onc(C)c1C1CCCN1C(=O)c1c(Br)cnn1C (stereo not given) | 728
COc1ccccc1C(=O)Nc1cc(-c2ccccn2)no1 | 980
O=C(NCc1ccccc1)N1CCCC1c1nc(-c2ccc(F)cc2F)no1 (stereo not given) | 862
Cc1ccc(/C=C2\CNC/C(=C\c3ccc(C)cc3)C2=O)cc1 | 734
Cc1ccc(Cn2nc3ccc(S(=O)(=O)N4CCCCCC4)cn3c2=O)cc1 | 1010
Cc1cccc(-c2ncccc2CNS(=O)(=O)c2ccccc2Br)c1 | 731
Cn1nc(C(=O)Nc2ccccc2)c2c1CCN(C(=O)NCC1CCCO1)C2 (stereo not given) | 702
COCCn1cc(CC(=O)Nc2cccc(SC)c2)c2cccnc21 | 787
Cc1cccc(C2(O)C(=O)N(CC(=O)N(C)c3ccccc3)c3ccccc32)c1 (stereo not given) | 614
O=C(CN1C(=O)S/C(=C\c2ccccc2)C1=O)NCCN1C(=O)CSC1=O | 746
CCOc1cccc(CNC(=O)CCc2nnc3c4cc(-c5ccccc5)nn4ccn23)c1 | 766
CCN1CCn2cc(C(=O)NCc3ccc(SC)cc3)nc2C1 | 596
CCOC(=O)c1c(C)oc2nc(C)nc(N3CCc4cc(OC)c(OC)cc4C3C)c12 (stereo not given) | 1060
CCOc1nc2ccccc2nc1N1CCCC(C(=O)NCC2CCCO2)C1 (stereo not given) | 934
CCCN(CC1CCOC1)C(=O)Nc1ccccc1F (stereo not given) | 728
O=C(Cn1nc2c(N3CCCCCC3)nccn2c1=O)Nc1ccc(F)c(Cl)c1 | 786
O=C(Cc1cccs1)NCC(=O)Nc1nc2ccccc2[nH]1 | 609
COc1ccc(-n2nnc(-c3nc(-c4cc(OC)ccc4OC)cs3)c2N)cc1 | 1080

Continued, values first:

RP-LC retention time [s] | SMILES
641 | O=C(Cn1ccn(-c2cccc(Cl)c2)c(=O)c1=O)NCc1ccco1
579 | O=C(NCc1ccc2c(c1)OCO2)C1CCN(C(=O)c2cc(-c3ccncc3)n[nH]2)CC1
755 | Cc1ccc(CNC(=O)Cn2nc(C(=O)N3CCCC3)c3ccccc32)o1
544 | Cc1nc2ccccn2c(=O)c1Cc1nnc(SCC(=O)NCc2nc3ccccc3[nH]2)n1C
725 | O=C(NCCn1c(=O)n(Cc2ccccc2)c2cccnc21)c1ccco1
955 | O=C(Nc1cccc(C(=O)N2CCN(c3ccc(Cl)cc3)CC2)c1)C1=CSCCO1
773 | Cc1cc(S(=O)(=O)N2CCN(C3CCN(CCC(C)C)C3=O)CC2)ccc1Cl (stereo not given)
723 | COc1ccc(NC(=O)CN2C(=O)NC3(CCCCC3)C2=O)cc1
792 | COc1ccc(-c2noc(C3CCCN3C(=O)CNC(=O)c3ccccc3)n2)cc1 (stereo not given)
666 | CCOc1cc(S(=O)(=O)NCc2ccccn2)ccc1Br
553 | OC1(c2ccccc2)CCN(Cc2ccccc2)CC1
617 | O=C(CSc1ccc(N2CCCC(C(=O)NC3CC3)C2)nn1)Nc1ccc(F)cc1F (stereo not given)
619 | Cc1nc(C(=O)N2CCN(Cc3ccc(C)c(C)c3)CC2)c(C)o1
719 | CCN1CCn2cc(S(=O)(=O)Nc3cc(OC)ccc3OC)cc2C1=O
790 | NC(=O)C1CCN(c2ncnc3c2c(-c2ccccc2)cn3-c2cccc(Cl)c2)CC1
861 | O=C(c1ccco1)N1CCCn2nc(-c3cccc(Cl)c3)cc2C1
1040 | O=C1COc2ccc(Cl)cc2N1Cc1nc(-c2ccc3c(c2)OCO3)no1
943 | CCOC(=O)c1cc(S(=O)(=O)N2CCCC2C(=O)N(CC)c2cccc(C)c2)cn1C (stereo not given)
883 | CCC(=O)N1c2ccc(S(=O)(=O)N3CCCCC3)cc2CC1C(=O)NC1CCCC1 (stereo not given)
753 | Cn1cc(-c2cc3n(n2)CCCN3C(=O)CCC(=O)N2CCCCC2)c2ccccc21
1120 | Cc1nc(-c2ccc(-c3noc(C(NS(=O)(=O)c4ccccc4)C(C)C)n3)cc2)cs1 (stereo not given)
992 | Cc1ccc(-c2ncc(C(=O)NCC3CCCCC3)c(-c3ccncc3)n2)cc1

RP-LC retention time [s] | SMILES
980 | CS(=O)(=O)N1CCC(C(=O)Nc2ccc(Br)cc2)Oc2ccccc21 (stereo not given)
870 | COc1ccc(CNC(=O)C2=C3CCCN3c3ccc(F)cc3S2(=O)=O)c(OC)c1
640 | O=C(C1CCN(c2nnc(-n3cccc3)s2)CC1)N1CCN(c2ccccn2)CC1
722 | Clc1ccc(CNc2c(-c3ccc4c(c3)OCCO4)nc3ncccn23)cc1
716 | COc1ccc(CC(=O)N2CCCC2c2cc(C)on2)cc1OC (stereo not given)
644 | CC(=O)N1CCc2cc(C(=O)NC(C)C)ccc21
862 | CC(C)Cn1nc2ccc(S(=O)(=O)N3CCC(C)CC3)cn2c1=O
652 | O=C1CCCCC(Cc2ccccc2)(C(=O)O)N1 (stereo not given)
784 | CCOc1ccc(CNC(=O)C2CCCN(c3ncnc4c3oc3ccccc34)C2)cc1 (stereo not given)
676 | CCN(CC)S(=O)(=O)c1ccc(Cl)c(C(=O)NCc2ccccn2)c1
973 | CCN1C(=O)CCc2cc(NS(=O)(=O)c3cc(F)ccc3F)ccc21
769 | CCn1ccc2c(cc(C(=O)Nc3ccc(C)cc3)n2C)c1=O
784 | O=C(NCc1ccc(F)cc1)C1CCN(C(=O)c2ncn3c2COC(c2ccc(F)cc2)C3)CC1 (stereo not given)
1420 | CCOC(=O)N1CCN(c2cc(-c3nc(-c4cccc(F)c4)no3)c3ccccc3n2)CC1
756 | Cc1noc2nc(C)n(CC(=O)NC(C)c3ccccc3)c(=O)c12 (stereo not given)
610 | O=C(NCCn1nc(-c2ccco2)ccc1=O)c1ccc2ncsc2c1
897 | O=C(CN1C(=O)C(C(=O)N2CCCC2)Sc2ccccc21)N1CC=C(c2ccccc2)CC1 (stereo not given)
947 | Cc1oc2ccn(C)c(=O)c2c1C(=O)NCc1cccc(Br)c1
854 | Cc1cc(C)n(-c2ccnc(N3CCC(C(=O)N4CCSCC4)CC3)n2)n1
772 | CCc1ccc(-c2cc(C(=O)N3CCN(Cc4noc5ccccc45)CC3)[nH]n2)cc1
1030 | CCOc1ccc(-c2cn3ccn(-c4ccc(C(C)C)cc4)c(=O)c3n2)cc1
883 | Cc1ccc(-n2c(=O)c3c(cc(C)n3C)n(CC(=O)Nc3cccc(Br)c3)c2=O)cc1
